Measurements published in ChEMBL document CHEMBL3639375, “Œ=-lactamase inhibitors” (2013).

How the values were obtained:
Beta-lactamase [1] = molecular target: Beta-lactamase (Pseudomonas aeruginosa, UniProt Q8RL90); experiment: (§1) Spectrophotometric Assay: Enzyme activities were measured in the presence of the test inhibitor in spectrophotometric assay.
Beta-lactamase [2] = molecular target: Beta-lactamase (Klebsiella pneumoniae, UniProt Q93LQ9); experiment: as §1
Beta-lactamase (Klebsiella pneumoniae, UniProt Q93LQ9), sequence (Q93LQ9 whole entry): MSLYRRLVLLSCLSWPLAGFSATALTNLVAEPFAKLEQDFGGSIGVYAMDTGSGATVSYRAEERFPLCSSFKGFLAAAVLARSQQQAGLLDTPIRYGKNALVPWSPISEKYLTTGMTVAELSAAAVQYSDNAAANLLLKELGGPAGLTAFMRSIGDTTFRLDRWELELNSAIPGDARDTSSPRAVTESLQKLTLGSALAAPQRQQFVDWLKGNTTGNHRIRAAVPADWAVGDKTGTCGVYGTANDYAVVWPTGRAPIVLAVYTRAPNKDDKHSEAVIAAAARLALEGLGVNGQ

Beta-lactamase (Pseudomonas aeruginosa, UniProt Q8RL90), sequence (Q8RL90 whole entry): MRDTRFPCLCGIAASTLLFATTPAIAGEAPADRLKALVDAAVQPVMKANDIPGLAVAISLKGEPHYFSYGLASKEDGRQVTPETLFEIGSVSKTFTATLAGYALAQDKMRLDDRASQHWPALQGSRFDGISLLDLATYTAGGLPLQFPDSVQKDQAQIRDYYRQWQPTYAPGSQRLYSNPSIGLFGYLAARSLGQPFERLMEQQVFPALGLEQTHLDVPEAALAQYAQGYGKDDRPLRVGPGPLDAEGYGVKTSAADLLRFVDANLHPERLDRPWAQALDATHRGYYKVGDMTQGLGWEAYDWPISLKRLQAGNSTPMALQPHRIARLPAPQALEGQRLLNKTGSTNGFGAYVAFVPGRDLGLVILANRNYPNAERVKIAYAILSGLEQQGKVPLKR

SMILES | IC50 (Beta-lactamase [1]) [nM] | IC50 (Beta-lactamase [2]) [nM]
O=C(Nc1ccncc1)[C@@H]1CCC2CN1C(=O)N2OS(=O)(=O)O (stereo partly drawn) | 6 | 
O=C(Nc1ccc2c(c1)CCNC2)[C@@H]1CCC2CN1C(=O)N2OS(=O)(=O)O (stereo partly drawn) |  | 19
O=C(NC1CCCNCC1)[C@@H]1CCC2CN1C(=O)N2OS(=O)(=O)O (stereo partly drawn) | 69 | 
